{"source": "patent US4659859A", "about": "“2-alkoxy-1-alkoxy phosphoryl dichlorides” (priority 1986, dated 1987)", "key": {"leukemic cells": {"test_system": "leukemic cells", "conditions": "Tidwell et al., Blood, 57, 794 (1981); cited from earlier work"}, "[1]": {"test_system": "release of arachidonic acid from membrane phospholipids (rabbit neutrophils)", "assay": "Inhibition of release of arachidonic acid from membrane phospholipids in glycogen-elicited rabbit neutrophils", "format": "cell-based", "conditions": "A-23187 0.5 mcg/ml activation, 5 minutes pretreatment at 37° C.", "procedure": "In this procedure, glycogen-elicited rabbit neutrophils are labelled with ^14 C-arachidonic acid by incubation for one hour at 37° C. and followed by treatment with the compound under test at 37° C. for 5 minutes. The cells were then activated by addition of 0.5 mcg/ml of A-23187 (an ionophore) for 5 minutes. Cellular metabolism was stopped; the membrane lipids extracted; and the extracted lipids chromatographed on TLC plates. Assays were conducted for free ^14 C-arachidonic acid and hydroxy^14 C-eicosatetraenoic acid (HETES) using a radiochromatogram scanner."}, "[2]": {"test_system": "carageenin-induced edema (rat paw swelling)", "assay": "Carageenin-induced edema (acute inflammation) model, rat paw swelling", "format": "in vivo", "conditions": "25 mg/kg oral, at 4 hours, group of 5 rats", "source_text": "It is well known that free arachidonic acid may be processed into potent inflammatory mediators such as the leukotrienes, prostaglandins, thromboxane A2 and prostacyclin. Inhibition of the release of arachidonic acid could result in a lowered inflammatory response."}, "[3]": {"test_system": "spontaneously hypertensive rats (SHR)", "assay": "Blood pressure and heart rate in spontaneously hypertensive rats, femoral artery cannula", "format": "in vivo, rat", "conditions": "for Blood pressure: femoral artery cannula", "source_text": "(§1) The above compounds are also active in lowering the blood pressure of spontaneously hypertensive rats (SHR). […] In the table, column 1 gives the compound used, column 2 the dose level, column 3, the route of administration, column 4, number of rats, column 5, the time of blood pressure measurement, column 6, blood pressure in mm (Hg), and column 7, heart rate.\n**B.P. measured by femoral artery cannula."}, "[4]": {"test_system": "X-5563 plasma cell myeloma", "assay": "Antitumor activity vs X-5563 plasma cell myeloma in mice", "format": "in vivo", "conditions": "daily for 10 days after inoculation", "source_text": "Compounds according to formula II above are also active against transplanted tumors in mice. Table II which follows gives the results of testing (d,1)-2-ethoxy-1-[(2-trimethylaminoethoxy)phosphinyloxy]-eicosane,hydroxy inner salt, (A), against several such tumors. In the table, column 1 gives the name of the tumor, column 2 the dosage levels, column 3 toxic deaths, column 4, the percent tumor growth inhibition and column 5, the dosage schedule or regimen. Ten mice were given each dosage I.P. and a group of 20 mice used as controls.\nTable III gives the results obtained by comparing the activity of the racemate (d,1)-2-ethoxy-1-[(2-trimethylaminoethoxy)phosphinyloxy]eicosane,hydroxy inner salt (A), the L-(-)enantiomer (B) and the D-(+)enantiomer (C) versus X-5563, a plasma cell myeloma."}, "[5]": {"test_system": "spontaneously hypertensive rats (SHR)", "assay": "Blood pressure and heart rate in spontaneously hypertensive rats, tail cuff method", "format": "in vivo, rat", "conditions": "administered subcutaneously, various dose levels", "source_text": "as §1\n*B.P. measured by tail cuff method."}, "[6]": {"conditions": "3 mg/kg I.V., 0 hours (baseline)"}, "[7]": {"conditions": "10 mg/kg I.V., 0 hours (baseline)"}}, "note": "Structures can show the parent of a compound that is named as a salt.", "data": [{"smiles": "CCCCCCCCCCCCCCCCCCOCC(COP(=O)([O-])OCC[N+](C)(C)C)OC", "note": "(stereo not drawn)", "values": [{"measurement": "inhibits the proliferation of leukemic cells", "setting": "leukemic cells", "value": "inhibits the proliferation of leukemic cells"}]}, {"smiles": "CCCCCCCCCCCCCCCCCCC(COP(=O)([O-])OCC[N+](C)(C)C)OC", "note": "(racemic) [Compound 7, (d,l)-2-Methoxy-1-[(2-trimethylaminoethoxy)phosphinyloxy]eicosane, hydroxy inner salt]", "values": [{"measurement": "inhibition of the release of arachidonic acid (AA) from phospholipids", "setting": "[1]", "value": 88, "unit": "%"}, {"measurement": "inhibition of the total production of free AA and HETES", "setting": "[1]", "value": 100, "unit": "%"}, {"measurement": "inhibition of rat paw swelling", "setting": "[2]", "value": 68, "unit": "%"}]}, {"smiles": "CCCCCCCCCCCCCCCCCC[C@@H](COP(=O)([O-])OCC[N+](C)(C)C)OCC", "note": "[Compound 1, D-2-Ethoxy-1-[(2-trimethylaminoethoxy)phosphinyloxy]eicosane, hydroxy inner salt]", "values": [{"measurement": "Heart Rate", "setting": "[3]; [6]", "value": 326, "unit": "beats/min"}, {"measurement": "Blood pressure", "setting": "[3]; [6]", "value": 197, "unit": "mm Hg"}, {"measurement": "Heart Rate", "setting": "[3]; 3 mg/kg I.V., 1.0 hours", "value": 376, "unit": "beats/min"}, {"measurement": "Blood pressure", "setting": "[3]; 3 mg/kg I.V., 1.0 hours", "value": 194, "unit": "mm Hg"}, {"measurement": "Heart Rate", "setting": "[3]; 3 mg/kg I.V., .08 hours", "value": 373, "unit": "beats/min"}, {"measurement": "Blood pressure", "setting": "[3]; 3 mg/kg I.V., .08 hours", "value": 197, "unit": "mm Hg"}, {"measurement": "Heart Rate", "setting": "[3]; 3 mg/kg I.V., .25 hours", "value": 400, "unit": "beats/min"}, {"measurement": "Blood pressure", "setting": "[3]; 3 mg/kg I.V., .25 hours", "value": 200, "unit": "mm Hg"}, {"measurement": "Heart Rate", "setting": "[3]; 3 mg/kg I.V., .5 hours", "value": 346, "unit": "beats/min"}, {"measurement": "Blood pressure", "setting": "[3]; 3 mg/kg I.V., .5 hours", "value": 188, "unit": "mm Hg"}, {"measurement": "Heart Rate", "setting": "[3]; [7]", "value": 345, "unit": "beats/min"}, {"measurement": "Blood pressure", "setting": "[3]; [7]", "value": 183, "unit": "mm Hg"}, {"measurement": "Heart Rate", "setting": "[3]; 10 mg/kg I.V., 1.0 hours", "value": 355, "unit": "beats/min"}, {"measurement": "Blood pressure", "setting": "[3]; 10 mg/kg I.V., 1.0 hours", "value": 178, "unit": "mm Hg"}, {"measurement": "Heart Rate", "setting": "[3]; 10 mg/kg I.V., .08 hours", "value": 360, "unit": "beats/min"}, {"measurement": "Blood pressure", "setting": "[3]; 10 mg/kg I.V., .08 hours", "value": 185, "unit": "mm Hg"}, {"measurement": "Heart Rate", "setting": "[3]; 10 mg/kg I.V., .25 hours", "value": 360, "unit": "beats/min"}, {"measurement": "Blood pressure", "setting": "[3]; 10 mg/kg I.V., .25 hours", "value": 184, "unit": "mm Hg"}, {"measurement": "Heart Rate", "setting": "[3]; 10 mg/kg I.V., .5 hours", "value": 345, "unit": "beats/min"}, {"measurement": "Blood pressure", "setting": "[3]; 10 mg/kg I.V., .5 hours", "value": 177, "unit": "mm Hg"}, {"measurement": "Percent inhibition of Tumor growth", "setting": "[4]; 17 mg/kg", "value": 76, "unit": "%"}, {"measurement": "Toxic deaths", "setting": "[4]; 17 mg/kg", "value": "2/10"}, {"measurement": "Percent inhibition of Tumor growth", "setting": "[4]; 25 mg/kg", "value": 95, "unit": "%"}, {"measurement": "Toxic deaths", "setting": "[4]; 25 mg/kg", "value": "1/10"}, {"measurement": "Percent inhibition of Tumor growth", "setting": "[4]; 35 mg/kg", "value": "Toxic"}, {"measurement": "Toxic deaths", "setting": "[4]; 35 mg/kg", "value": "5/10"}, {"measurement": "Percent inhibition of Tumor growth", "setting": "[4]; 50 mg/kg", "value": "Toxic"}, {"measurement": "Toxic deaths", "setting": "[4]; 50 mg/kg", "value": "10/10"}]}, {"smiles": "CCCCCCCCCCCCCCCCCC[C@H](COP(=O)([O-])OCC[N+](C)(C)C)OCC", "note": "[Compound 2, L-2-Ethoxy-1-[(2-trimethylaminoethoxy)phosphinyloxy]eicosane, hydroxy inner salt]", "values": [{"measurement": "Heart Rate", "setting": "[3]; [6]", "value": 340, "unit": "beats/min"}, {"measurement": "Blood pressure", "setting": "[3]; [6]", "value": 177, "unit": "mm Hg"}, {"measurement": "Heart Rate", "setting": "[3]; 3 mg/kg I.V., 1.0 hours", "value": 380, "unit": "beats/min"}, {"measurement": "Blood pressure", "setting": "[3]; 3 mg/kg I.V., 1.0 hours", "value": 162, "unit": "mm Hg"}, {"measurement": "Heart Rate", "setting": "[3]; 3 mg/kg I.V., .08 hours", "value": 385, "unit": "beats/min"}, {"measurement": "Blood pressure", "setting": "[3]; 3 mg/kg I.V., .08 hours", "value": 107, "unit": "mm Hg"}, {"measurement": "Heart Rate", "setting": "[3]; 3 mg/kg I.V., .25 hours", "value": 367, "unit": "beats/min"}, {"measurement": "Blood pressure", "setting": "[3]; 3 mg/kg I.V., .25 hours", "value": 144, "unit": "mm Hg"}, {"measurement": "Heart Rate", "setting": "[3]; 3 mg/kg I.V., .5 hours", "value": 370, "unit": "beats/min"}, {"measurement": "Blood pressure", "setting": "[3]; 3 mg/kg I.V., .5 hours", "value": 162, "unit": "mm Hg"}, {"measurement": "hypotensive effects in SHR (in words)", "setting": "[5]", "value": "hypotensive effects"}, {"measurement": "Percent inhibition of Tumor growth", "setting": "[4]; 2.5 mg/kg", "value": 18, "unit": "%"}, {"measurement": "Toxic deaths", "setting": "[4]; 2.5 mg/kg", "value": "1/10"}, {"measurement": "Percent inhibition of Tumor growth", "setting": "[4]; 5 mg/kg", "value": 44, "unit": "%"}, {"measurement": "Toxic deaths", "setting": "[4]; 5 mg/kg", "value": "1/10"}, {"measurement": "Percent inhibition of Tumor growth", "setting": "[4]; 10 mg/kg", "value": 53, "unit": "%"}, {"measurement": "Toxic deaths", "setting": "[4]; 10 mg/kg", "value": "0/10"}, {"measurement": "Percent inhibition of Tumor growth", "setting": "[4]; 20 mg/kg", "value": 67, "unit": "%"}, {"measurement": "Toxic deaths", "setting": "[4]; 20 mg/kg", "value": "0/10"}]}]}
